System: 379773-124-R-J2-PDC complex spheroids, viability % test/control
Test: Anticancer human tumor 379773-124-R-J2-PDC patient-derived endometrial carcinoma cell line growth inhibition [CLK]
Conditions: for IC50: curve of first compound; for viability, T/C: stronger effect = lower value; active means viability on the fitted dose curve at most 10% of control; inactive means the rest
How it was run: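 Multi-cell-type spheroids combined patient-derived tumor cells with HUVEC endothelial cells and human mesenchymal stem cells. Paired agents were dosed in half-log steps down from about clinical Cmax, or from 10 microM where Cmax was unknown.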

[1] = second compound 0.0316 µM, first compound 0.0316 µM
[2] = second compound 0.0316 µM, first compound 0.1 µM
[3] = second compound 0.0316 µM, first compound 0.316 µM
[4] = second compound 0.0316 µM, first compound 1 µM
[5] = second compound 0.0316 µM, first compound 3.16 µM
[6] = second compound 0.0316 µM, first compound 10 µM
[7] = second compound 0.1 µM, first compound 0.0316 µM
[8] = second compound 0.1 µM, first compound 0.1 µM
[9] = second compound 0.1 µM, first compound 0.316 µM
[10] = second compound 0.1 µM, first compound 1 µM
[11] = second compound 0.1 µM, first compound 3.16 µM
[12] = second compound 0.1 µM, first compound 10 µM
[13] = second compound 0.316 µM, first compound 0.0316 µM
[14] = second compound 0.316 µM, first compound 0.1 µM
[15] = second compound 0.316 µM, first compound 0.316 µM
[16] = second compound 0.316 µM, first compound 1 µM
[17] = second compound 0.316 µM, first compound 3.16 µM
[18] = second compound 0.316 µM, first compound 10 µM
[19] = second compound 1 µM, first compound 0.0316 µM
[20] = second compound 1 µM, first compound 0.1 µM
[21] = second compound 1 µM, first compound 0.316 µM
[22] = second compound 1 µM, first compound 1 µM
[23] = second compound 1 µM, first compound 3.16 µM
[24] = second compound 1 µM, first compound 10 µM
[25] = second compound 3.16 µM, first compound 0.0316 µM
[26] = second compound 3.16 µM, first compound 0.1 µM
[27] = second compound 3.16 µM, first compound 0.316 µM
[28] = second compound 3.16 µM, first compound 1 µM
[29] = second compound 3.16 µM, first compound 3.16 µM
[30] = second compound 3.16 µM, first compound 10 µM
[31] = second compound 10 µM, first compound 0.0316 µM
[32] = second compound 10 µM, first compound 0.1 µM
[33] = second compound 10 µM, first compound 0.316 µM
[34] = second compound 10 µM, first compound 1 µM
[35] = second compound 10 µM, first compound 3.16 µM
[36] = second compound 10 µM, first compound 10 µM
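Further: compound exposure lasted seven days before the viability readout.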
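Wherever viability, T/C is given: 100% = DMSO vehicle control wells.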

C#Cc1c(F)ccc2cc(O)cc(-c3ncc4c(N5CC6CCC(C5)N6)nc(OCC56CCCN5CC(F)C6)nc4c3F)c12 (stereo not given) + CNC(=O)c1ccc(Nc2nc(OC3CCCC3)c3c(-c4ccc5nc(C)oc5c4)c[nH]c3n2)c(OC)c1
< 31.6 nM: IC50 (second compound 0.1 µM) | IC50 (second compound 0.316 µM) | IC50 (second compound 1 µM) | IC50 (second compound 3.16 µM) | IC50 (second compound 10 µM)
inactive: viability, T/C [1] 73.2% | viability, T/C [2] 65% | viability, T/C [3] 72.9% | viability, T/C [4] 79.1% | viability, T/C [5] 71.3% | viability, T/C [6] 62% | viability, T/C [7] 41.2% | viability, T/C [8] 39% | viability, T/C [9] 38.3% | viability, T/C [10] 32.4% | viability, T/C [11] 32.2% | viability, T/C [12] 36% | viability, T/C [13] 41% | viability, T/C [14] 33.1% | viability, T/C [15] 39% | viability, T/C [16] 37.1% | viability, T/C [17] 33.4% | viability, T/C [18] 28.4% | viability, T/C [19] 38.8% | viability, T/C [20] 33% | viability, T/C [21] 25.8% | viability, T/C [22] 29.1% | viability, T/C [23] 33.1% | viability, T/C [24] 29% | viability, T/C [25] 31.9% | viability, T/C [26] 27.4% | viability, T/C [27] 28.3% | viability, T/C [28] 31.4% | viability, T/C [29] 28% | viability, T/C [30] 23.2% | viability, T/C [31] 32.7% | viability, T/C [32] 27.1% | viability, T/C [33] 28% | viability, T/C [34] 27.1% | viability, T/C [35] 27.4% | viability, T/C [36] 27.1%
> 10000 nM: IC50 (second compound 0.0316 µM)

CC(CO)NC(=O)c1cc(-c2ccc(Cl)cc2)nn(-c2cnn(C)c2)c1=O (stereo not given) + CNC(=O)c1ccc(Nc2nc(OC3CCCC3)c3c(-c4ccc5nc(C)oc5c4)c[nH]c3n2)c(OC)c1
inactive: viability, T/C [1] 72% | viability, T/C [2] 80.9% | viability, T/C [3] 70.2% | viability, T/C [4] 74.2% | viability, T/C [5] 72.4% | viability, T/C [6] 52.2% | viability, T/C [7] 48.2% | viability, T/C [8] 48.5% | viability, T/C [9] 44.4% | viability, T/C [10] 38.9% | viability, T/C [11] 36.8% | viability, T/C [12] 33.3% | viability, T/C [13] 42.1% | viability, T/C [14] 42.2% | viability, T/C [15] 37.7% | viability, T/C [16] 35.4% | viability, T/C [17] 43.8% | viability, T/C [18] 29.9% | viability, T/C [19] 32.2% | viability, T/C [20] 37.4% | viability, T/C [21] 34.8% | viability, T/C [22] 34.6% | viability, T/C [23] 35.6% | viability, T/C [24] 25.2% | viability, T/C [25] 32.6% | viability, T/C [26] 30% | viability, T/C [27] 32.5% | viability, T/C [28] 30.9% | viability, T/C [29] 34.5% | viability, T/C [30] 24.4% | viability, T/C [31] 32% | viability, T/C [32] 30.5% | viability, T/C [33] 28.5% | viability, T/C [34] 35.8% | viability, T/C [35] 32.4% | viability, T/C [36] 22.7%
> 10000 nM: IC50 (second compound 0.0316 µM)
< 31.6 nM: IC50 (second compound 0.1 µM) | IC50 (second compound 0.316 µM) | IC50 (second compound 1 µM) | IC50 (second compound 3.16 µM) | IC50 (second compound 10 µM)

C#Cc1c(F)ccc2cc(O)cc(-c3ncc4c(N5CC6CCC(C5)N6)nc(OCC56CCCN5CC(F)C6)nc4c3F)c12 (stereo not given) + CN1CCN(c2cc(C(=O)Nc3cc4cc(-c5cnn(C)c5)ccc4cn3)ccn2)CC1
> 10000 nM: IC50 (second compound 0.0316 µM) | IC50 (second compound 0.1 µM)
< 31.6 nM: IC50 (second compound 0.316 µM) | IC50 (second compound 1 µM) | IC50 (second compound 3.16 µM) | IC50 (second compound 10 µM)
active: viability, T/C [19] 0.19% | viability, T/C [20] 0.22% | viability, T/C [21] 0.24% | viability, T/C [22] 1.34% | viability, T/C [23] 0.78% | viability, T/C [24] 0.14% | viability, T/C [25] 0.14% | viability, T/C [26] 2.72% | viability, T/C [27] 0.76% | viability, T/C [28] 2.34% | viability, T/C [29] 1.68% | viability, T/C [30] 1.37% | viability, T/C [31] 2.32% | viability, T/C [32] 0.23% | viability, T/C [33] 0.32% | viability, T/C [34] 3.73% | viability, T/C [35] 1.56% | viability, T/C [36] 0.31%
inactive: viability, T/C [1] 88.4% | viability, T/C [2] 91.4% | viability, T/C [3] 93% | viability, T/C [4] 87.5% | viability, T/C [5] 103% | viability, T/C [6] 99.3% | viability, T/C [7] 89.7% | viability, T/C [8] 84.5% | viability, T/C [9] 75.7% | viability, T/C [10] 77% | viability, T/C [11] 99.1% | viability, T/C [12] 72.8% | viability, T/C [13] 35.7% | viability, T/C [14] 27.4% | viability, T/C [15] 35.1% | viability, T/C [16] 33.3% | viability, T/C [17] 32.5% | viability, T/C [18] 28.4%

Nc1ccccc1NC(=O)c1ccc(CNC(=O)OCc2cccnc2)cc1 + CNC(=O)c1ccc(Nc2nc(OC3CCCC3)c3c(-c4ccc5nc(C)oc5c4)c[nH]c3n2)c(OC)c1
< 31.6 nM: IC50 (second compound 0.1 µM) | IC50 (second compound 0.316 µM) | IC50 (second compound 1 µM) | IC50 (second compound 3.16 µM) | IC50 (second compound 10 µM)
1820 nM: IC50 (second compound 0.0316 µM)
inactive: viability, T/C [1] 87.7% | viability, T/C [2] 81.9% | viability, T/C [3] 95.7% | viability, T/C [4] 70.6% | viability, T/C [5] 29.8% | viability, T/C [7] 32.2% | viability, T/C [8] 40.1% | viability, T/C [9] 36.5% | viability, T/C [10] 27.8% | viability, T/C [11] 11.5% | viability, T/C [13] 44.5% | viability, T/C [14] 40.2% | viability, T/C [15] 27.7% | viability, T/C [16] 25.4% | viability, T/C [17] 15.3% | viability, T/C [19] 39.1% | viability, T/C [20] 29.2% | viability, T/C [21] 28.4% | viability, T/C [22] 20.4% | viability, T/C [23] 14.3% | viability, T/C [25] 31.8% | viability, T/C [26] 30.1% | viability, T/C [27] 25.1% | viability, T/C [28] 21.4% | viability, T/C [29] 12.9% | viability, T/C [31] 38.7% | viability, T/C [32] 30.2% | viability, T/C [33] 25.2% | viability, T/C [34] 17.3% | viability, T/C [35] 12.2%
active: viability, T/C [6] 7.39% | viability, T/C [12] 5.65% | viability, T/C [18] 4.66% | viability, T/C [24] 3.91% | viability, T/C [30] 3.52% | viability, T/C [36] 2.97%

Cn1ncnc1[C@H]1c2n[nH]c(=O)c3cc(F)cc(c23)N[C@@H]1c1ccc(F)cc1 + CN1CCN(c2cc(C(=O)Nc3cc4cc(-c5cnn(C)c5)ccc4cn3)ccn2)CC1
22.2 nM: IC50 (second compound 0.1 µM)
42.6 nM: IC50 (second compound 0.0316 µM)
inactive: viability, T/C (second compound 0.0316 µM, first compound 0.000316 µM) 87.8% | viability, T/C (second compound 0.0316 µM, first compound 0.001 µM) 96.2% | viability, T/C (second compound 0.0316 µM, first compound 0.00316 µM) 80.3% | viability, T/C (second compound 0.0316 µM, first compound 0.01 µM) 92.6% | viability, T/C [1] 55.6% | viability, T/C [2] 34% | viability, T/C (second compound 0.1 µM, first compound 0.000316 µM) 87% | viability, T/C (second compound 0.1 µM, first compound 0.001 µM) 82.6% | viability, T/C (second compound 0.1 µM, first compound 0.00316 µM) 79.1% | viability, T/C (second compound 0.1 µM, first compound 0.01 µM) 64.1% | viability, T/C [7] 43.6% | viability, T/C [8] 27% | viability, T/C (second compound 0.316 µM, first compound 0.000316 µM) 24.1% | viability, T/C (second compound 0.316 µM, first compound 0.001 µM) 29.2% | viability, T/C (second compound 0.316 µM, first compound 0.00316 µM) 17.9% | viability, T/C (second compound 0.316 µM, first compound 0.01 µM) 21.4% | viability, T/C [13] 15.2% | viability, T/C [14] 12.3%
< 0.316 nM: IC50 (second compound 0.316 µM) | IC50 (second compound 1 µM) | IC50 (second compound 3.16 µM) | IC50 (second compound 10 µM)
active: viability, T/C (second compound 1 µM, first compound 0.000316 µM) 0.11% | viability, T/C (second compound 1 µM, first compound 0.001 µM) 0.8% | viability, T/C (second compound 1 µM, first compound 0.00316 µM) 0.33% | viability, T/C (second compound 1 µM, first compound 0.01 µM) 0.19% | viability, T/C [19] 0.06% | viability, T/C [20] 0.07% | viability, T/C (second compound 3.16 µM, first compound 0.000316 µM) 1.37% | viability, T/C (second compound 3.16 µM, first compound 0.001 µM) 0.24% | viability, T/C (second compound 3.16 µM, first compound 0.00316 µM) 0.23% | viability, T/C (second compound 3.16 µM, first compound 0.01 µM) 0.07% | viability, T/C [25] 1.63% | viability, T/C [26] 0.08% | viability, T/C (second compound 10 µM, first compound 0.000316 µM) 1.25% | viability, T/C (second compound 10 µM, first compound 0.001 µM) 0.1% | viability, T/C (second compound 10 µM, first compound 0.00316 µM) 0.49% | viability, T/C (second compound 10 µM, first compound 0.01 µM) 0.52% | viability, T/C [31] 0.29% | viability, T/C [32] 0.13%
